The results in this text go back to patent publication US9290440B2, “Bicyclic compound” (TOA EIYO LTD., priority 2012, dated 2016).

Where two headings read alike, the source gives them in different places.

For test [1], the target named is T1, human sGC α subunit and β subunit (Homo sapiens, UniProt Q02153).
T1 construct: expressed in transfected cells
T1 sequence (Q02153 1-619): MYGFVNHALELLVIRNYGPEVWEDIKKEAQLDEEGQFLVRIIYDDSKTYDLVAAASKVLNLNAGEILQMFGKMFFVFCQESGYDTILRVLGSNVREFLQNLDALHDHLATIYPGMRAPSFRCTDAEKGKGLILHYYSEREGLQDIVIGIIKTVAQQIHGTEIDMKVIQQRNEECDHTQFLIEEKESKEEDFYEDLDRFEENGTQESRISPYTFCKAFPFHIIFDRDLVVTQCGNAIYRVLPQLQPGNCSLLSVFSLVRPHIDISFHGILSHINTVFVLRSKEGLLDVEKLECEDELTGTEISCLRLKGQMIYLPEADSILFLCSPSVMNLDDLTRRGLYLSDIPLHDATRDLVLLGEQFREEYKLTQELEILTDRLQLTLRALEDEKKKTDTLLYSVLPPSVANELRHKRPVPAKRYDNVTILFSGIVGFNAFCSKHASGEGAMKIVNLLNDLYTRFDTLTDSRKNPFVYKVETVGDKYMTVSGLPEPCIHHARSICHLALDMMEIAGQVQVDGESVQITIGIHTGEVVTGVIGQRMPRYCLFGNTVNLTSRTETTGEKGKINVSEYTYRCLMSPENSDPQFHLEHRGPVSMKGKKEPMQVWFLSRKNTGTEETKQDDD
T1 sequence (Q02108 1-690 partner): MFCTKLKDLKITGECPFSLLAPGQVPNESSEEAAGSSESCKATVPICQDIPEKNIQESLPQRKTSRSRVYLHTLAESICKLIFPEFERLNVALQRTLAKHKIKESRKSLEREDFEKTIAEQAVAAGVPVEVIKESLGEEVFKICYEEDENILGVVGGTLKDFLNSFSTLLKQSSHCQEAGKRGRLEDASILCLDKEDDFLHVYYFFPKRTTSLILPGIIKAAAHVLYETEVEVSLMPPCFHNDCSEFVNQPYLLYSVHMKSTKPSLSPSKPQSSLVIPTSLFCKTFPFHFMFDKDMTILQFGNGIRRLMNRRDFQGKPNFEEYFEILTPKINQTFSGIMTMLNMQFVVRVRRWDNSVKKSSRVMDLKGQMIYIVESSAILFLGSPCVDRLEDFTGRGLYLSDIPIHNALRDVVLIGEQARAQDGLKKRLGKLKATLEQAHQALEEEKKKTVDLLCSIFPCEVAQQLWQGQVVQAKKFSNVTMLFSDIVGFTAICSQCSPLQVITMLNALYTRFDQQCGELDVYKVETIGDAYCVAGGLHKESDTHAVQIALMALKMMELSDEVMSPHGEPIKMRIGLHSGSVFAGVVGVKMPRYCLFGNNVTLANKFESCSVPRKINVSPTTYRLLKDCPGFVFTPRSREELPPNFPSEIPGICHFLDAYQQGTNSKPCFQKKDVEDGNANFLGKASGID
As to the kind of experiment: Maximum effect of sGC activating function (Ca2+ fluorescence in CHO-K1 cells expressing human sGC and mouse CNGA2). It counts as cell-based. Particulars: increase ratio of sGC activity vs control solution at 10 μmol/L test compound. How it is done: (§1) For the assay, Chinese hamster ovary cells (CHO-K1 cells) in which human sGC α subunit and β subunit and mouse cyclic nucleotide gated channel (CNGA2) are stably expressed were used.
(§2) CHO-K1 cells in which human sGC and mouse CNGA2 are stably expressed were cultured at 37° C. in F-12 medium containing 10% (v/v) fetal bovine serum (FBS), penicillin (100 U/mL), streptomycin (100 μg/mL), G418 (250 μg/mL), and zeocin (250 μg/mL). The cells were suspended in the culture medium and seeded onto a 96-well plate, and then cultured at 37° C. for 24 hours. After washing with assay buffer 1 (140 mmol/L sodium chloride, 5 mmol/L potassium chloride, 0.5 mmol/L magnesium chloride, 0.01 mmol/L calcium chloride, 10 mmol/L glucose, 0.4 mmol/L magnesium sulfate, 10 mmol/L 4-(2-hydroxyethyl)piperazin-1-ylethane sulfonic acid, and 125 μmol/L sulfinpyrazone, pH 7.4), an indicator solution in which FURA2-AM as a fluorescent Ca^2+ indicator is dissolved at concentration of 5 μmol/L in assay buffer 1 was added followed by culture for 60 minutes at 37° C. The indicator solution was removed. After washing with assay buffer 1, the test compound solution was added and incubated for 10 minutes at room temperature. The plate was placed in a fluorometer (Flex Station II, Molecular Devices, LLC), and then the intracellular calcium concentration was measured as fluorescence intensity ratio which is obtained from each excitation wavelength (excitation wavelength of 340 nm and 380 nm and detection wavelength of 510 nm).
(§3) The test compound solution was prepared by dissolving each of the test compounds in DMSO to a concentration of 10 mmol/L, and then adding the assay buffer 2 (140 mmol/L sodium chloride, 5 mmol/L potassium chloride, 0.5 mmol/L magnesium chloride, 1 mmol/L calcium chloride, 10 mmol/L glucose, 0.4 mmol/L magnesium sulfate, 10 mmol/L 4-(2-hydroxyethyl)piperazin-1-ylethane sulfonic acid, 125 μmol/L sulfinpyrazone, 100 μmol/L isobutylmethylxanthine, 10 μmol/L 1H-[1,2,4]-oxadiazole[4,3-a]quinoxalin-1-one (hereinbelow, ODQ), pH 7.4) for dilution to have test concentration of 10 μmol/L. For the evaluation of a case in which ODQ is not contained, the same evaluation was performed except that ODQ is excluded from assay buffer 2. As a control solution, a DMSO solution was used instead of the test compound solution.
(§4) The activity of the test compound corresponds to the increase ratio (%) of the sGC activity at the time of adding the test compound solution with respect to the sGC activity at the time of adding the control solution, and it was calculated by dividing the fluorescence intensity ratio at the time of adding the test compound by the fluorescence intensity ratio of the control solution and subtracting the sGC activity (100%) at the time of adding the control solution.
In this assay, intracellular cGMP concentration increases as sGC is activated, and according to opening of CNGA2 following the increase of cGMP, intracellular Ca^2+ concentration increases. Thus, SGC activation can be measured by following the change in intracellular Ca^2+ concentration. […] Thus, in the absence of ODQ, the maximum sGC activating function including the heme-dependent activation can be evaluated while the heme-independent sGC activating function can be evaluated in the presence of ODQ.

Test [2] concerns the target T1, human sGC α subunit and β subunit. In words: Heme-independent property of sGC activating function (EC50 ratio, CHO-K1 cells expressing human sGC and mouse CNGA2). Particulars: EC50 in the absence of ODQ divided by EC50 in the presence of ODQ, sGC activation. It counts as cell-based. The protocol:
as §1, §2, §3, §4
For the representative compounds, activity was measured in the same manner as Test Example 1 at each test concentration of 0.0001, 0.001, 0.003, 0.01, 0.03, 0.1, 1, and 10 μmol/L.
The degree of heme-independent property of each test compound with regard to sGC activating function was obtained by dividing, for EC50 measured from the concentration-activation curve which has been established from the above, EC50 in the absence of ODQ by EC50 in the presence of ODQ. Specifically, the smaller the EC50 ratio is, the less the change in sGC activating function is, the change in the function being caused by the presence or absence of ODQ, and thus it is found to be more heme-independent.
EC50 value was obtained by measuring the activity of each compound to be tested at concentrations of 0.0001, 0.001, 0.003, 0.01, 0.03, 0.1, 1, and 10 μmol/L and performing the calculation using four-parameter logistics model using Assay Explorer (Accelrys).

Where [3] appears, read: ODQ not contained, read-out: Emax (%) ODQ− (Heme-dependent).
The mark [4] stands for this setting: with 10 μmol/L ODQ, read-out: Emax (%) ODQ+ (Heme-independent).

Broadly, the Emax is the greatest response seen or fitted, relative to the assay's reference. Take `O=C(O)CCCCN(CCc1ccccc1OCc1ccc(CCc2ccccc2)cc1)C1CCc2cc(C(=O)O)ccc21` (stereo not drawn) [Example 1, 1-{N-(4-Carboxybutyl)-N-[2-[2-[4-(2-phenylethyl)benzyloxy]phenyl]ethyl]amino}indane-5-carboxylic acid]: the Emax at 10 µM in test [1] (setting [3]) came to 85.6%; in test [1] (setting [4]), 103%. Moreover, the “EC50 Ratio (ODQ−/ODQ+)” value in test [2] stood at 2.86.

Regarding `O=C(O)CCCCN(CCc1ccccc1OCc1ccc(CCc2ccccc2)cc1)C1CCCc2cc(C(=O)O)ccc21` (stereo not drawn) [Example 2, 5-{N-(4-Carboxybutyl)-N-[2-[2-[4-(2-phenylethyl)benzyloxy]phenyl]ethyl]amino}-5,6,7,8-tetrahydronaphthalene-2-carboxylic acid], the Emax at 10 µM in test [1] (setting [3]) was determined as 97.5%; in test [1] (setting [4]), 109%. Moreover, the “EC50 Ratio (ODQ−/ODQ+)” value in test [2] was 2.67.

As for `O=C(O)CCCCN(CCc1ccccc1OCc1ccc(CCc2ccccc2)cc1)C1CCCCc2cc(C(=O)O)ccc21` (stereo not drawn) [Example 3, 5-{N-(4-Carboxybutyl)-N-[2-[2-[4-(2-phenylethyl)benzyloxy]phenyl]ethyl]amino}-6,7,8,9-tetrahydro-5H-benzocycloheptene-2-carboxylic acid], the Emax at 10 µM stood at 102% in test [1] (setting [3]) and 111% in test [1] (setting [4]). In addition, the “EC50 Ratio (ODQ−/ODQ+)” value in test [2] is recorded as 2.54.

Turning to `O=C(O)CCCCN(CCc1ccccc1OCc1ccc(CCc2ccccc2)cc1)C1CCSc2cc(C(=O)O)ccc21` (stereo not drawn) [Example 5, 4-{N-(4-Carboxybutyl)-N-[2-[2-[4-(2-phenylethyl)benzyloxy]phenyl]ethyl]amino}thiochromane-7-carboxylic acid], the Emax at 10 µM in test [1] (setting [3]) was 84.5%; in test [1] (setting [4]), 86.9%.

For the compound `O=C(O)CCCCN(CCc1ccccc1OCc1ccccc1Cl)C1CCCc2cc(C(=O)O)ccc21` (stereo not drawn) [Example 13, 5-{N-(4-Carboxybutyl)-N-[2-[2-(2-chlorobenzyloxyl)phenyl]ethyl]amino}-5,6,7,8-tetrahydronaphthalene-2-carboxylic acid], the Emax at 10 µM was 64.2% in test [1] (setting [3]) and 87.2% in test [1] (setting [4]).

Take `O=C(O)CCCCN(CCc1ccccc1OCc1ccc(COc2ccccc2)cc1)C1CCCc2cc(C(=O)O)ccc21` (stereo not drawn) [Example 16, 5-{N-(4-Carboxybutyl)-N-[2-[2-(4-phenoxymethylbenzyloxy)phenyl]ethyl]amino}-5,6,7,8-tetrahydronaphthalene-2-carboxylic acid]: the maximal effect (Emax) at 10 µM in test [1] (setting [3]) worked out at 116%; in test [1] (setting [4]), 97.5%.

Consider `O=C(O)CCCCN(CCc1ccccc1OCc1ccc(CSc2ccccc2)cc1)C1CCCc2cc(C(=O)O)ccc21` (stereo not drawn) [Example 17, 5-{N-(4-Carboxybutyl)-N-[2-[2-(4-phenylsulfanylmethylbenzyloxy)phenyl]ethyl]amino}-5,6,7,8-tetrahydronaphthalene-2-carboxylic acid], for which the values for the Emax at 10 µM in test [1] (setting [3]) and in test [1] (setting [4]) were 115% and 91.8%, respectively.

Regarding `C#Cc1ccc(COc2ccccc2CCN(CCCCC(=O)O)C2CCCc3cc(C(=O)O)ccc32)cc1` (stereo not drawn) [Example 19, 5-{N-(4-Carboxybutyl)-N-[2-[2-(4-ethynylbenzyloxy)phenyl]ethyl]amino}-5,6,7,8-tetrahydronaphthalene-2-carboxylic acid], the Emax at 10 µM came out at 88.7% in test [1] (setting [3]) and 88% in test [1] (setting [4]).

Turning to `O=C(O)CCCCN(CCc1ccccc1OCc1ccc(C#CC2CCCCC2)cc1)C1CCCc2cc(C(=O)O)ccc21` (stereo not drawn) [Example 22, 5-{N-(4-Carboxybutyl)-N-[2-[2-(4-cyclohexylethynylbenzyloxy)phenyl]ethyl]amino}-5,6,7,8-tetrahydronaphthalene-2-carboxylic acid], the Emax at 10 µM in test [1] (setting [3]) is 108%; in test [1] (setting [4]), 100%.

`O=C(O)CCCCN(CCc1ccccc1OCc1ccc(CCC2CCCCC2)cc1)C1CCCc2cc(C(=O)O)ccc21` (stereo not drawn) [Example 24, 5-{N-(4-Carboxybutyl)-N-[2-[2-[4-(2-cyclohexylethyl)benzyloxy]phenyl]ethyl]amino}-5,6,7,8-tetrahydronaphthalene-2-carboxylic acid]: the Emax at 10 µM in test [1] (setting [3]) came out at 135%; in test [1] (setting [4]) it was 114%.

On to `O=C(O)CCCCN(CCc1ccccc1OC[C@H]1CC[C@H](CCc2ccccc2)CC1)C1CCCc2cc(C(=O)O)ccc21` (stereo partly drawn) [Example 26, 5-{N-(4-Carboxybutyl)-N-[2-[2-[trans-4-(2-phenylethyl)cyclohexylmethoxy]phenyl]ethyl]amino}-5,6,7,8-tetrahydronaphthalene-2-carboxylic acid], for which the Emax at 10 µM in test [1] (setting [3]) was found to be 119%; in test [1] (setting [4]), 86.9%.

Turning to `CC(C)(C)c1cccc(COc2ccccc2CCN(CCCCC(=O)O)C2CCCc3cc(C(=O)O)ccc32)c1` (stereo not drawn) [Example 41, 5-{N-[2-[2-(3-tert-Butylbenzyloxy)phenyl]ethyl]-N-(4-carboxybutyl)amino}-5,6,7,8-tetrahydronaphthalene-2-carboxylic acid], the Emax at 10 µM in test [1] (setting [3]) is 109%; in test [1] (setting [4]), 140%.
